Assay results: patent US20070048231A1, “Pheromone compositions and methods” (priority 2005, published 2007)

Legend:
sinusitis = experiment: Inhalation exposure of the inventor to androstenone released from a polyethylene bag: sinusitis signs and symptoms; assay type: in vivo; conditions: human (inventor); about 500 mg in polyethylene bag; about five to seven days of exposure, two to eight hours per day
Excerpt: (§1) For example, increased strength was evidenced by an at least 5-10%, and more typically 10-20% increase of weight that was lifted as compared to the same exercise before exposure to the pheromone.
Therefore, it is also contemplated that the compositions and methods presented herein may present a convenient matter to treat and/or alleviate signs and symptoms of airway inflammation. Most preferably, such inflammation may be sinusitis, asthma, and allergic airway inflammation. In yet other contemplated aspects, additional behavioral effects may be advantageously conferred by use of contemplated compositions and methods, especially including feeling of increased energy, sexual desire, and self-confidence.

[1] = tested on: exercise strength and stamina; experiment: Inhalation exposure of the inventor to androstenone released from a polyethylene bag: exercise strength and stamina; assay type: in vivo; conditions: human (inventor), after about five to seven days of exposure
Excerpt: as §1
With respect to the effects afforded by contemplated compositions and devices, it is generally contemplated that the steroid pheromones will exert both a desirable behavioral effect as well as a desirable non-behavioral effect. […] The term “exercise strength” as used herein refers to an ability to lift a particular weight in a given exercise routine (e.g., lifting of 100 pounds on a bench press). Thus, where exercise strength is increased, heavier weights can be lifted. Most typically the increase in exercise strength is between 5 and 40%, and more typically between 10 and 25%. […] The term “exercise stamina” as used herein refers to an ability to lift a particular weight in a given exercise routine for a maximum of repeats Rmax (e.g., lifting of 100 pounds on a bench press ten times). Thus, where exercise stamina is increased, the weight can be lifted more that Rmax times. Most typically the increase in exercise strength is between 5 and 30%, and more typically between 10 and 20%.

## C[C@]12CCC(=O)C[C@@H]1CC[C@@H]1[C@@H]2CC[C@]2(C)C=CC[C@@H]12 [androstenone, 5α-androst-16-en-3-one]
sinusitis
  signs and symptoms of a previously diagnosed sinusitis: all signs and symptoms of a previously diagnosed sinusitis had disappeared
[1]; 'at least'
  increase of weight that was lifted as compared to the same exercise before exposure (exercise strength): 5-10%
[1]; 'more typically'
  increase of weight that was lifted as compared to the same exercise before exposure (exercise strength): 10-20%
[1]; 'most typically'
  increase in number of repeats per exercise (exercise stamina): 5-20%
